The numbers were not newly measured in patent publication US20240148815A1, “FOOD SUPPLEMENT TO PROMOTE BODY WEIGHT LOSS” (NGN HEALTHCARE-NEW GENERATION NUTRACEUTICALS S.R.L., priority 2021, published 2024), which cites them from elsewhere.

In series [1] the test system is NCI-716 and STC-1 cells (T2R38). The following applies: by interacting with T2R38.
The next series deals with young healthy subjects. The following applies: oral, encapsulated, 18 mg.
A further series deals with obese mice. The following applies: intragastric, 4 weeks.
For the next series, the system named is rodents. The following applies: intragastric preload prior to enteral glucose.
For a further series, the system named is overweight women. The following applies: 4 weeks, calorie-reduced diet.

Molecules are shown by their SMILES. Counter-ions that a name gives are not always drawn.

On to `NC(=S)Nc1ccccc1` [phenylthiourea], for which, in series [1], the GLP-1 secretion result is “dose-dependently stimulate”.

As to `C=C[C@H]1C[N@@]2CC[C@H]1C[C@H]2[C@H](O)c1ccnc2ccc(OC)cc12` [quinine HCl], in the series with young healthy subjects, the CCK plasma concentrations result is on record as “increased” and the “energy intake during an ad libitum meal” value is listed as “reduced”.

Regarding `CC[N+](CC)(CC(=O)Nc1c(C)cccc1C)Cc1ccccc1` [DB, denatonium benzoate], in the series with obese mice, the “meal-induced GLP-1 secretion” value was “increase”. Moreover, in the series on obese mice (obese mice), the body weight entry is listed as “reduction”. Further, the PYY secretion entry in the series on NCI-H716 cells is listed as “stimulates”. Further, in the series on rodents, the GLP-1 plasma levels result is listed as “increase”, the blood glucose result was “reduction”, the gastric emptying entry is reported as “slowing” and the insulin concentration entry is reported as “increase”.

In the case of `N[C@@H](Cc1c[nH]c2ccc(O)cc12)C(=O)O` [5-hydroxytryptophan], in the series with overweight women, the BMI result was “decrease” and the feeling of satiety result was “significantly increased”.

Regarding `COc1ccc2cc3[n+](cc2c1OC)CCc1cc2c(cc1-3)OCO2` [berberine], the GLP-1 secretion result in series [1] is “dose-dependently stimulate”.
